Values quoted from earlier work in patent publication US20100136097A1, “Systems for modulating inflammation” (Searete LLC, a limited liability corporation of the State …, priority 2008, published 2010).
One block for each compound: values may come before it.

Key:
[1] = single agent, infused at 400 mg over one hour
[2] = test system: Src family kinase
[3] = test system: proteasomal activity in cultured breast cancer cells; conditions: through binding of copper
[4] = mice
[5] = test system: Src family kinases (Src, Lck, Yes, Fyn); conditions: at nanomolar concentrations

SMILES: CCN(CC)CCCC(C)Nc1ccnc2cc(Cl)ccc12.O=P(O)(O)O.O=P(O)(O)O (centres unmarked) [Chloroquine phosphate, 7-chloro-4-[[4-(diethylamino)-1-methylbutyl]amino]quinoline phosphate (1:2)]
tolerability of infusion [1]: without complication

inhibition of CpG-induced Src family kinase activation, or its dependent cellular responses [2]: does not inhibit
SMILES: CCN(CC)CCCC(C)Nc1ccnc2cc(Cl)ccc12 (centres unmarked) [Chloroquine]

SMILES: CCN(CC)C(=S)SSC(=S)N(CC)CC [Disulfiram, 1-(diethylthiocarbamoyldisulfanyl)-N,N-diethyl-methanethioamide]
proteasomal activity [3]: inhibits proteasomal activity

SMILES: Cl.Cl.Nc1ccccc1Oc1ccc2c(N)nsc2c1 [Example M62812, 3-amino-6-(2-aminophenoxy)-1,2-benzisothiazole dihydrochloride]
prevention of lethal septic shock [4]: prevents lethal septic shock

SMILES: Cc1nc(Nc2ncc(C(=O)Nc3c(C)cccc3Cl)s2)cc(N2CCN(CCO)CC2)n1.O [dasatinib, N-(2-chloro-6-methylphenyl)-2-[[6-[4-(2-hydroxyethyl)-1-piperazinyl]-2-methyl-4-pyrimidinyl]amino]-5-thiazolecarboxamide, monohydrate]
inhibition of Src family kinases (Src, Lck, Yes, Fyn) [5]: inhibits
